Patent US20260272915A1, “PHARMACEUTICAL COMPOSITION FOR TREATING, PREVENTING, OR MANAGING BILIRUBIN-INDUCED NEUROLOGICAL DYSFUNCTION, PSYCHIATRIC DISORDERS ASSOCIATED WITH JAUNDICE, OR PSYCHIATRIC DISORDERS CAUSED BY BILIRUBIN UDP-GLUCURONOSYLTRANSFERASE GENE MUTATIONS” (priority 2023, published 2026)

Columns and labels:
Assay type in all cases: in vivo, rat
[1] = tested on: jaundice model rats (Gunn rats); test: Open field test; conditions: for Effect on number of grooming behaviors of Gunn rats (in words) / Effect on number of rearing behaviors of Gunn rats (in words) / Effect on spontaneous activity amount of Gunn rats (in words): compared with normal (Wistar) rats; for Spontaneous Activity Amount, Average / Number of Rearing Behaviors, Average / Number of Grooming Behaviors, Average: Gunn rats (j/j)
Experimental: Eltoprazine (E1357, TCI), which is one of the 5-HT1A/1B receptor agonists, was dissolved in an arbitrary solvent. 0.3 mg/kg of eltoprazine was subcutaneously administered to jaundice model rats (Gunn rats) at 9 to 10 weeks of age. Further, as control groups, only a solvent was subcutaneously administered to Gunn rats and Wistar rats at 9 to 10 weeks of age. Further, as a comparison group, 8OH-DPAT (O415005, FUJIFILM Wako Pure Chemical Corporation), which is one of 5-HT1A receptor agonists, was dissolved in an arbitrary solvent, and 1 mg/kg thereof was subcutaneously administered to Gunn rats. After placing each rat in its home cage for 60 minutes, an open field test was conducted for 60 minutes using the Scanet MV-40 (Melquest Ltd.). The spontaneous activity amount and the number of rearing behaviors were measured for each rat by counting how many times the rat crossed the center evenly spaced. The number of grooming behaviors was counted by visual inspection.
Eltoprazine (E1357, TCI), which is one of the 5-HT1A/1B receptor agonists, was dissolved in an arbitrary solvent. 0.3 mg/kg of eltoprazine was subcutaneously administered to jaundice model rats (Gunn rats) at 9 to 10 weeks of age. Further, as control groups, only a solvent was subcutaneously administered to Gunn rats and Wistar rats at 9 to 10 weeks of age. Further, as a comparison group, CGS12066A (Sigma-Aldrich Co. LLC), which is one of 5-HT1B receptor agonists, was dissolved in an arbitrary solvent, and 1 mg/kg thereof was subcutaneously administered to Gunn rats. After placing each rat in its home cage for 60 minutes, an open field test was conducted for 60 minutes using the Scanet MV-40 (Melquest Ltd.). The spontaneous activity amount and the number of rearing behaviors for each rat were measured by counting how many times the rat crossed the center evenly spaced. The number of grooming behaviors was counted by visual inspection.

Gunn rats [2] = test: Social interaction test; conditions: for Attacking Behavior, Average / Following Behavior, Average / Sniffing Behavior/Grooming Behavior, Average: Gunn rats (j/j), 1 h after administration, 10 min recording; for Sniffing Behavior/Grooming Behavior, Average: duration of sniffing or grooming the partner
Experimental: Eltoprazine (E1357, TCI), which is one of 5-HT1A/1B receptor agonists, was dissolved in a physiological saline solution. Only a solvent, 0.3 mg/kg of eltoprazine, or 1 mg/kg of eltoprazine was administered subcutaneously to Gunn rats at 9 to 10 weeks of age. For control, only a solvent was administered to Wistar rats as normal rats. One hour after the administration, two rats of the same type (same drug, same dose, same genetic type) were placed together in a single cage, and their behaviors were video-recorded from above for 10 minutes. The recorded video was visually analyzed, and the number of behaviors of following the partner, the attacking behavior, and the duration of sniffing or grooming the partner were measured.

Gunn rats [3] = test: Startle response prepulse inhibition (PPI) test; conditions: 0.3 mg/kg subcutaneous, 80 dB prepulse
Experimental: Eltoprazine (E1357, TCI), which is one of 5-HT1A/1B receptor agonists, was dissolved in a physiological saline solution. Only a solvent, 0.3 mg/kg of eltoprazine, or 1 mg/kg of eltoprazine was administered subcutaneously to Gunn rats at 9 to 10 weeks of age. For control, only a solvent was administered to Wistar rats as normal rats. One hour after the administration, a startle response prepulse inhibition (PPI) test was performed. The PPI test was conducted using the SR-LAB-Startle Response System (San Diego Institute, USA). Each rat subjected to the measurement was placed in a measurement chamber and acclimated with a 65 dB background white noise for 5 minutes before the start of stimulation. The startle response to a 120 dB auditory stimulation was measured using a piezoelectric sensor attached to the bottom of the chamber. The test session consisted of a total of 50 randomized trials, including no-stimulus (white noise only), 20 ms of 120 dB pulse stimulation, and stimulation with 20 ms of 70 dB or 80 dB prepulse 100 ms before the 120 dB pulse. The interval between the trials was 20 to 60 seconds (average: 40 seconds). The percentage PPI was calculated using the following formula: 100−[(startle response to prepulse-pulse stimulation trial−no-stimulation trial)/(pulse-alone trial−no-stimulation trial)×100].

[4] = 0.3 mg/kg or 1 mg/kg subcutaneous, compared with normal rats

## CCCN(CCC)C1CCc2cccc(O)c2C1 (centres unmarked) [8OH-DPAT]
[1]; 1 mg/kg subcutaneous
  Effect on number of grooming behaviors of Gunn rats (in words): levels comparable to those of normal rats
  Effect on number of rearing behaviors of Gunn rats (in words): abnormal number of rearing behaviors
  Effect on spontaneous activity amount of Gunn rats (in words): levels comparable to those of normal rats
[1]; Table 2, 1 mg/kg subcutaneous, 60 min home cage then 60 min open field
  Spontaneous Activity Amount, Average: 2681 count
[1]; Table 3, 1 mg/kg subcutaneous, 60 min open field
  Number of Rearing Behaviors, Average: 0.3 times
[1]; Table 4, 1 mg/kg subcutaneous, 60 min open field, visual inspection
  Number of Grooming Behaviors, Average: 5.5 count

## CN1CCN(c2nc3cc(C(F)(F)F)ccc3n3cccc23)CC1 [CGS12066A]
[1]; 1 mg/kg subcutaneous
  Effect on number of grooming behaviors of Gunn rats (in words): did not improve
  Effect on number of rearing behaviors of Gunn rats (in words): levels comparable to those of normal rats
  Effect on spontaneous activity amount of Gunn rats (in words): levels comparable to those of normal rats
[1]; Table 5, 1 mg/kg subcutaneous, 60 min open field
  Spontaneous Activity Amount, Average: 4030 count
[1]; Table 6, 1 mg/kg subcutaneous, 60 min open field
  Number of Rearing Behaviors, Average: 47 count
[1]; Table 7, 1 mg/kg subcutaneous, 60 min open field
  Number of Grooming Behaviors, Average: 19.6 count

## c1cc2c(c(N3CCNCC3)c1)OCCO2 [eltoprazine, 5-(piperazin-1-yl)-2,3-dihydro-1,4-benzodioxine]
[1]; 0.3 mg/kg subcutaneous
  Effect on number of grooming behaviors of Gunn rats (in words): levels comparable to those of normal rats
  Effect on number of rearing behaviors of Gunn rats (in words): levels comparable to those of normal rats
  Effect on spontaneous activity amount of Gunn rats (in words): levels comparable to those of normal rats
[1]; Table 2, 0.3 mg/kg subcutaneous, 60 min home cage then 60 min open field
  Spontaneous Activity Amount, Average: 4640 count
[1]; Table 3, 0.3 mg/kg subcutaneous, 60 min open field
  Number of Rearing Behaviors, Average: 61.5 times
[1]; Table 4, 0.3 mg/kg subcutaneous, 60 min open field, visual inspection
  Number of Grooming Behaviors, Average: 8.5 count
[1]; Table 5, 0.3 mg/kg subcutaneous, 60 min open field
  Spontaneous Activity Amount, Average: 4640 count
[1]; Table 6, 0.3 mg/kg subcutaneous, 60 min open field
  Number of Rearing Behaviors, Average: 61.5 count
[1]; Table 7, 0.3 mg/kg subcutaneous, 60 min open field
  Number of Grooming Behaviors, Average: 8.5 count
Gunn rats [2]; [4]
  Effect on attacking behavior of Gunn rats (in words): levels comparable to those of normal rats
  Effect on duration of sniffing or grooming the partner in Gunn rats (in words): normal level
  Effect on following behavior of Gunn rats (in words): levels comparable to those of normal rats
Gunn rats [2]; 0.3 mg/kg subcutaneous
  Attacking Behavior, Average: 2 count
  Following Behavior, Average: 2.16 count
  Sniffing Behavior/Grooming Behavior, Average: 52 count
Gunn rats [2]; 1 mg/kg subcutaneous
  Attacking Behavior, Average: 0.16 count
  Following Behavior, Average: 3.83 count
  Sniffing Behavior/Grooming Behavior, Average: 41.5 count
Gunn rats [3]
  Effect on percentage PPI of Gunn rats (in words): tendency to improve
Gunn rats [3]; 120 dB pulse, Gunn rats (j/j), 1 h after administration
  Percentage PPI, Average: 63.6%
